According to patent US12653775B2, “Canine topical formulations and methods thereof” (priority 2023, dated 2026):

Key:
[1] = system: Methicillin-resistant Staphylococcus pseudintermedius (MRSP) clinical isolate biofilm; experiment: Minimum biofilm eradication concentration (MBEC) assay, Calgary Biofilm Device; format: cell-based
Experimental: (§1) Minimum biofilm eradication concentration (MBEC) values provide estimates on the concentration of an antimicrobial product required to kill bacterial biofilm.
(§2) The CBD plate was incubated with
(§3) All test articles were tested in triplicate.

[2] = system: P. aeruginosa PAE 1103 (multi-drug resistant clinical isolate) biofilm; format: cell-based, Pseudomonas aeruginosa; conditions: MDR P. aeruginosa; TP1 undiluted, micronized silver at lowest concentration 0.05% v/v
Experimental: as §1, §2, §3

[3] = system: biofilms of S. pseudintermedius; experiment: In vitro biofilm eradication study; format: cell-based
[4] = system: biofilms of Pseudomonas aeruginosa; experiment: In vitro biofilm eradication study; format: cell-based

Row | Substance | MBEC ([1]; MRSP clinical isolate biofilm, treated 24 hours at 35° C.) [µg/mL] | biofilm eradication (in words) [2] | biofilm eradication (in words) ([1]; MRSP, TP1 undiluted, micronized silver at lowest concentration 0.05% v/v) | biofilm eradication (in words) [3] | biofilm eradication (in words) [4]
1 | Gentamicin [reference compound] | 0.25 | – | – | – | –
2 | Silver ions | – | effective in eradicating the biofilms | effective in eradicating the biofilms | effective in eradicating the biofilms | effective in eradicating the biofilms
